Reference: ChEMBL document CHEMBL3091332, “Recycling antimalarial leads for cancer: Antiproliferative properties of N-cinnamoyl chloroquine analogues” (Bioorg Med Chem Lett, 2013)

Key:
[1] = Antiproliferative activity against human HFF1 cells after 2 days by sulforhodamine B assay; assay type: cell-based, HFF-1
MCF7 = assay: Antiproliferative activity against human MCF7 cells after 2 days by sulforhodamine B assay; assay type: functional; details: MCF7, 48 h
Caco-2 = assay: Antiproliferative activity against human Caco2 cells after 2 days by sulforhodamine B assay; assay type: functional; details: Caco-2, 48 h
[2] = Antiproliferative activity against human MKN28 cells after 2 days by sulforhodamine B assay; assay type: functional; details: MKN-28, 48 h
[3] = biological target: Receptor tyrosine-protein kinase erbB-2 (Homo sapiens, UniProt P04626); assay: Inhibition of human HER2
Sequence of Receptor tyrosine-protein kinase erbB-2 (P04626 whole entry): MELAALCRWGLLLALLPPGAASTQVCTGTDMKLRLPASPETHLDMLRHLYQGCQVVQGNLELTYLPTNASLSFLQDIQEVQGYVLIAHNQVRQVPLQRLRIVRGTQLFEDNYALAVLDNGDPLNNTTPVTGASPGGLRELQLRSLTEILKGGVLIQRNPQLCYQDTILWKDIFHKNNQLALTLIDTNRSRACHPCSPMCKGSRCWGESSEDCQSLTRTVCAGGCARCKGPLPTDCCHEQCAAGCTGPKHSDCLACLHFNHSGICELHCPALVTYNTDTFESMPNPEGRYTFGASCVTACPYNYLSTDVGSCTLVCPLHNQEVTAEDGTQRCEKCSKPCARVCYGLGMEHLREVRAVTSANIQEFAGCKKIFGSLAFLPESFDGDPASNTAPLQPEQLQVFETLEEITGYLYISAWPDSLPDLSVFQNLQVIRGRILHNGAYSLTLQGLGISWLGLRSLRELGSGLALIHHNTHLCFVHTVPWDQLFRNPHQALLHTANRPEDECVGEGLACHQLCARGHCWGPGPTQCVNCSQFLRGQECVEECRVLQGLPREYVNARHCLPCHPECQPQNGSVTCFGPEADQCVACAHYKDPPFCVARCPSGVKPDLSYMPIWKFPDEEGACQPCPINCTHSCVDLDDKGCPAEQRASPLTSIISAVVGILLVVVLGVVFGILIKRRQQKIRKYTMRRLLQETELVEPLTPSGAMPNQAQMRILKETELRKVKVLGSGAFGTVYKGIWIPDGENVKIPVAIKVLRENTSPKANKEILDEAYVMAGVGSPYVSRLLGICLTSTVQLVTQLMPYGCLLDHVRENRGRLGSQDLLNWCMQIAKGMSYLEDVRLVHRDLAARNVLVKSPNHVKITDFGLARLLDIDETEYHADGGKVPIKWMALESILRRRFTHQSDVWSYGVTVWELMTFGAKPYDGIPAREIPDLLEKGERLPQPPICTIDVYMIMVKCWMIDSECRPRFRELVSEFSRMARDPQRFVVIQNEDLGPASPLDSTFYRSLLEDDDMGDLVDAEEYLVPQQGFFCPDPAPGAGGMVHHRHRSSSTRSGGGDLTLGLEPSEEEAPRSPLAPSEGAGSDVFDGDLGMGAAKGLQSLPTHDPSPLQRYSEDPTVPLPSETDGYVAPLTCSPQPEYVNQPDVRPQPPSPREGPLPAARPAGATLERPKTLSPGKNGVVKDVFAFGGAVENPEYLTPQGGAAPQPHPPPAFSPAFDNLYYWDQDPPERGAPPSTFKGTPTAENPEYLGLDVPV

| SMILES | GI50 (MCF7) [µM] | GI50 (Caco-2) [µM] | IC50 [3] [nM] | GI50 at 48 h [1] [µM] | GI50 [2] [µM] |
| --- | --- | --- | --- | --- | --- |
| CC(C)c1ccc(/C=C/C(=O)NCCCCCNc2ccnc3cc(Cl)ccc23)cc1 | 20.1 | 9.16 | – | > 100 | 14 |
| COc1ccc(/C=C/C(=O)OCCCCNc2ccnc3cc(Cl)ccc23)cc1 | 5.08 | 17.3 | – | 75.2 | 6.6 |
| CC(C)c1ccc(/C=C/C(=O)NCCCCNc2ccnc3ccccc23)cc1 | 5.24 | 6.75 | – | 39.1 | 5.55 |
| COc1ccc(/C=C/C(=O)NCCCCNc2ccncc2)cc1 | 77.1 | > 100 | – | > 100 | 84.5 |
| CC(C)c1ccc(/C=C/C(=O)NCCCCN2CCOCC2)cc1 | 32.7 | 29.6 | – | > 100 | 72.5 |
| CC(C)c1ccc(/C=C/C(=O)NCCCCNc2ccnc3cc(Cl)ccc23)cc1 | 8.09 | 11.9 | – | > 100 | 22.3 |
| COc1ccc(/C=C/C(=O)NCCCCNc2ccnc3cc(Cl)ccc23)cc1 | 25.2 | 30.7 | – | > 100 | 16.9 |
| O=C(/C=C/c1ccccc1[N+](=O)[O-])NCCCCNc1ccnc2cc(Cl)ccc12 | 13.3 | 11.9 | – | > 100 | 15.1 |
| CCOc1cc2ncc(C#N)c(Nc3ccc(OCc4ccccn4)cc3)c2cc1NC(=O)/C=C/CN(C)C | – | – | 59 | – | – |
| CCN(CC)CCCC(C)Nc1ccnc2cc(Cl)ccc12 (stereo unspecified) [CHLOROQUINE] | 64.3 | 38.7 | – | > 100 | 44.4 |
| COc1cccc2c1C(=O)c1c(O)c3c(c(O)c1C2=O)C[C@@](O)(C(=O)CO)C[C@@H]3O[C@H]1C[C@H](N)[C@H](O)[C@H](C)O1 [DOXORUBICIN] | 0.31 | 0.32 | – | > 400 | 0.24 |

Further lines, with some results ahead:

| GI50 (MCF7) [µM] | GI50 (Caco-2) [µM] | IC50 [3] [nM] | SMILES | GI50 at 48 h [1] [µM] | GI50 [2] [µM] |
| --- | --- | --- | --- | --- | --- |
| 5.24 | 44.1 | – | O=C(/C=C/c1ccc(F)cc1)NCCCNc1ccnc2cc(Cl)ccc12 | 44.8 | 34.7 |
| 14.8 | 24.1 | – | O=C(/C=C/c1ccccc1)NCCCCNc1ccnc2cc(Cl)ccc12 | > 100 | 16.2 |
| 14.8 | 25.4 | – | O=C(/C=C/c1cccc(F)c1)NCCCCNc1ccnc2cc(Cl)ccc12 | > 100 | 15.3 |
| 12.5 | 15 | – | O=C(/C=C/c1ccc(F)cc1)NCCCCNc1ccnc2cc(Cl)ccc12 | > 100 | 11.8 |
| 59.3 | 19.3 | – | O=C(/C=C/c1cccc([N+](=O)[O-])c1)NCCCCNc1ccnc2cc(Cl)ccc12 | > 100 | 16.2 |
